Patent US20120129763A1, “NOVEL SEMI-SYNTHETIC GLYCOPEPTIDES AS ANTIBACTERIAL AGENTS” (BIOMARIN PHARMACEUTICAL INC., priority 2007, published 2012)
Converted amounts (≈) assume the structure as drawn.

What was measured:
Format in all cases: cell-based
Conditions in all cases: clinical isolate, Mueller-Hinton broth
[1] = system: Staphylococcus aureus 100 (MSSA); assay: Broth microdilution MIC, SA 100
Experimental: (§1) Antibacterial activity in vitro is investigated by broth microdilution method in Meuller-Hinton broth as recommended by NCCLS. All strains tested are clinical isolates either sensitive or resistant to natural glycopeptides. MIC values were determined using the CLSI-recommended broth microdilution procedure (Clinical and Laboratory Standards Institute, Methods for Dilution Antimicrobial Susceptibility Tests for Bacteria That Grow Aerobically; Approved Standard-Seventh Edition). Automated liquid handlers (Multidrop 384, Labsystems, Helsinki, Finland; Biomek 2000 and Multimek 96, Beckman Coulter, Fullerton Calif.) were used to conduct serial dilutions and liquid transfers.

[2] = system: Staphylococcus aureus 757 (MRSA); assay: Broth microdilution MIC, SA 757
Experimental: as §1

[3] = system: Staphylococcus aureus 2012 (VISA); assay: Broth microdilution MIC, SA 2012
Experimental: as §1

[4] = system: Staphylococcus epidermidis 835 (MSSE); assay: Broth microdilution MIC, SE 835; set-up: unit not given beside the values
Experimental: as §1

[5] = system: Staphylococcus epidermidis 831 (MRSE); assay: Broth microdilution MIC, SE 831; set-up: unit not given beside the values
Experimental: as §1

[6] = system: Enterococcus faecalis 101 (vancomycin sensitive); assay: Broth microdilution MIC, EFC 101
Experimental: as §1

[7] = system: Enterococcus faecalis 848 (VRE); assay: Broth microdilution MIC, EFC 848
Experimental: as §1

[8] = system: Enterococcus faecium 750 (vancomycin sensitive); assay: Broth microdilution MIC, EFCM 750
Experimental: as §1

[9] = system: Enterococcus faecium 752 (VRE); assay: Broth microdilution MIC, EFCM 752
Experimental: as §1

[10] = system: Streptococcus pneumoniae 1195 (penicillin sensitive); assay: Broth microdilution MIC, SPNE 1195
Experimental: as §1

[11] = system: Streptococcus pyogenes 712 (penicillin sensitive); assay: Broth microdilution MIC, SPYO 712
Experimental: as §1

Row | MIC, SA 100 [1] [µg/mL] | MIC, SA 757 [2] [µg/mL] | MIC, SA 2012 [3] [µg/mL] | MIC, SE 835 [4] | MIC, SE 831 [5] | MIC, E FC 101 [6] [µg/mL] | MIC, E FC 848 [7] [µg/mL] | MIC, E FCM 750 [8] [µg/mL] | MIC, E FCM 752 [9] [µg/mL] | MIC, S PNE 1195 [10] [µg/mL] | MIC, S PYO 712 [11] [µg/mL] | Compound
1 | 2 (≈ 1.25 µM) | 1 (≈ 0.627 µM) | 1 (≈ 0.627 µM) | 1 | 0.5 | 1 (≈ 0.627 µM) | 2 (≈ 1.25 µM) | 0.5 (≈ 0.314 µM) | 2 (≈ 1.25 µM) | 0.12 (≈ 0.0753 µM) | 0.12 (≈ 0.0753 µM) | CCCCCCCCNC(=O)NC(=O)C[C@@H]1NC(=O)[C@H](NC(=O)[C@@H](CC(C)C)NC)[C@H](O)c2ccc(c(Cl)c2)Oc2cc3cc(c2OC2OC(CO)C(O)C(O)C2O)Oc2ccc(cc2Cl)[C@@H](O)[C@H]2NC(=O)[C@H](NC(=O)[C@@H]3NC1=O)c1ccc(O)c(c1)-c1c(O)cc(O)cc1[C@@H](C(=O)NC1C3CC4CC(C3)CC1C4)NC2=O (stereo partly drawn) [Compound 29]
2 | 4 (≈ 2.31 µM) | 2 (≈ 1.15 µM) | 4 (≈ 2.31 µM) | 2 | 1 | 2 (≈ 1.15 µM) | 2 (≈ 1.15 µM) | 0.5 (≈ 0.288 µM) | 2 (≈ 1.15 µM) | 1 (≈ 0.577 µM) | 0.25 (≈ 0.144 µM) | CN[C@H](CC(C)C)C(=O)N[C@H]1C(=O)N[C@@H](CC(=O)NC(=O)N[C@@H](C)c2ccccc2)C(=O)N[C@H]2C(=O)N[C@@H]3C(=O)N[C@H](C(=O)N[C@H](C(=O)NC4C5CC6CC(C5)CC4C6)c4cc(O)cc(O)c4-c4cc3ccc4O)[C@H](O)c3ccc(c(Cl)c3)Oc3cc2cc(c3OC2O[C@H](COC(=O)N[C@@H](C)c3ccccc3)[C@@H](O)[C@H](O)[C@H]2O)Oc2ccc(cc2Cl)[C@H]1O (stereo partly drawn) [Compound 75]
3 | 2 (≈ 1.26 µM) | 2 (≈ 1.26 µM) | 4 (≈ 2.52 µM) | 1 | 1 | 2 (≈ 1.26 µM) | 8 (≈ 5.04 µM) | 0.5 (≈ 0.315 µM) | 8 (≈ 5.04 µM) | 0.25 (≈ 0.158 µM) | 0.06 (≈ 0.0378 µM) | CN[C@H](CC(C)C)C(=O)N[C@H]1C(=O)N[C@@H](CC(=O)NC(=O)N[C@@H](C)c2ccccc2)C(=O)N[C@H]2C(=O)N[C@@H]3C(=O)N[C@H](C(=O)N[C@H](C(=O)NC4C5CC6CC(C5)CC4C6)c4cc(O)cc(O)c4-c4cc3ccc4O)[C@H](O)c3ccc(c(Cl)c3)Oc3cc2cc(c3OC2O[C@H](CO)[C@@H](O)[C@H](O)[C@H]2O)Oc2ccc(cc2Cl)[C@H]1O (stereo partly drawn) [Compound 76]
